Data as given in US20120157471A1, “BENZIMIDAZOLE DERIVATIVES” (PFIZER INC., priority 2009, published 2012).

Tests used:
Gli-Luc/MEF cells (Smo) = test: Gli-Luc/MEF assay (Shh-stimulated luciferase reporter under the Gli response element); assay type: cell-based, mouse; conditions: Mus musculus, MEF, 48 h
How it was run: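 Mouse Gli-Luc/MEF cells dosed with compound (3-fold series, […]) plus 2 μg/mL recombinant mouse Shh, then incubated 48 h at 37° C, 5% CO2. Bright-Glo luminescence read; IC50 calculated from inhibition of Shh-stimulated luciferase.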

[1] = biological target: T1, human Smo (amino acids 181-787) (Homo sapiens, UniProt Q99835); test: Smo radioligand competition binding assay (displacement of 3H-PF-03451358 from HEK293 membranes); conditions: for inhibition at 0.05 µM: 0.05 μM test compound, displacement of 3H-PF-03451358, read-out: SMO % inh. @ 0.05 μM; for IC50: radioligand competition binding
T1 construct: expressed in transfected cells; membrane preparation
T1 sequence (Q99835 181-787): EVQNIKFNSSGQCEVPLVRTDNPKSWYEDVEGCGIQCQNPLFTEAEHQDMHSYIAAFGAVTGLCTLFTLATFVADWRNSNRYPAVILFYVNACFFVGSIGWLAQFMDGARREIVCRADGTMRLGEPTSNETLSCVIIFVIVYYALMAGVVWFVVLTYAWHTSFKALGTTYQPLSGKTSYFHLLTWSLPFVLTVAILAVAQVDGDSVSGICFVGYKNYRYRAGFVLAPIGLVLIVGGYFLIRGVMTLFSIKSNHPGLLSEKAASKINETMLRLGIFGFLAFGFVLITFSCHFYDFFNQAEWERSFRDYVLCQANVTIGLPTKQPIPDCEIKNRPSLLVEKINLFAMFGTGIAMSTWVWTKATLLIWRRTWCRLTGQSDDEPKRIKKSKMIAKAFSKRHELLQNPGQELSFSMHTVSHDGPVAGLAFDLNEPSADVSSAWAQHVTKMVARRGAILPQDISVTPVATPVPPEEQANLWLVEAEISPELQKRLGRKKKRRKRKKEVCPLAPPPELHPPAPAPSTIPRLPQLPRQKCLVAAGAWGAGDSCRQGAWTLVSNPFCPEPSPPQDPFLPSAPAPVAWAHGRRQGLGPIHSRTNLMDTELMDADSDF
How it was run: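 Membranes (40 μg protein/well) from HEK293 expressing murine Igk-leader-fused Smo 181-787 incubated 2 h at room temperature with 3 nM 3H-PF-03451358 in Tris pH 7.5/NaCl/MgCl2/EDTA/BSA buffer; filter-bound counts by scintillation. Nonspecific binding with 30 μM cold PF-03451358; IC50 from four-parameter fit of % inhibition.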

SMILES | IC50 (Gli-Luc/MEF cells (Smo)) | inhibition at 0.05 µM [1] | IC50 [1]
Cn1c(-c2cc(N3C[C@H]4CC[C@@H](C3)N4S(C)(=O)=O)ncc2Cl)nc2ccccc21 [Example A-175, 2-{5-chloro-2-[(1R,5S)-8-(methylsulfonyl)-3,8-diazabicyclo[3.2.1]oct-3-yl]pyridin-4-yl}-1-methyl-1H-benzimidazole] | 9 nM | 97% | 17 nM
CC(=O)N1CCN(c2cccc(-c3nc4ccccc4n3C)n2)CC1 [Example B-8, 2-[6-(4-acetylpiperazin-1-yl)pyridin-2-yl]-1-methyl-1H-benzimidazole] | 46 nM | 90% | 32 nM
COC(=O)N1CCN(c2cc(-c3nc4ccccc4n3C)ccn2)CC1 [Example A-141, methyl 4-[4-(1-methyl-1H-benzimidazol-2-yl)pyridin-2-yl]piperazine-1-carboxylate] | 27 nM | 96% | 34 nM
CN(C1CCN(c2cc(-c3nc4ccccc4n3C)c(F)cn2)CC1)S(C)(=O)=O [Example D-10, N-{1-[5-fluoro-4-(1-methyl-1H-benzimidazol-2-yl)pyridin-2-yl]piperidin-4-yl}-N-methylmethanesulfonamlde] | 4 nM | 102% | 7 nM
Cn1c(-c2ccnc(N3CCC(O)CC3)c2)nc2ccccc21 [Example A-18, 1-[4-(1-methyl-1H-benzimidazol-2-yl)pyridin-2-yl]piperidin-4-ol] | 115 nM | 79% | 75 nM
CNC(=O)N1CCN(c2nccc(-c3nc4ccccc4n3C)n2)CC1 [Example C-8, N-Methyl-4-[4-(1-methyl-1H-benzimidazol-2-yl)pyrimidin-2-yl]piperazine-1-carboxamide] | 408 nM | 54% | 538 nM
Cc1nnc(C)n1C1CCN(c2cc(-c3nc4ccccc4n3C)c(Cl)cn2)CC1 [Example A-124, 2-{5-chloro-2-[4-(3,5-dimethyl-4H-1,2,4-triazol-4-yl)piperidin-1-yl]pyridin-4-yl}-1-methyl-1H-benzimidazole] | 52 nM | 59% | –
Cn1c(-c2cc(N3CCN(C(=O)CC(C)(C)O)CC3)ncc2Cl)nc2ccccc21 [Example A-190, 4-{4-[5-chloro-4-(1-methyl-1H-benzimidazol-2-yl)pyridin-2-yl]piperazin-1-yl}-2-methyl-4-oxobutan-2-ol] | 1.4 nM | 98% | 7 nM
Cn1c(-c2cc(N3CCn4c(nnc4C(F)F)C3)ncc2Cl)nc2ccccc21 [Example A-101, 7-[5-chloro-4-(1-methyl-1H-benzimidazol-2-yl)pyridin-2-yl]-3-(difluoromethyl)-5,6,7,8-tetrahydro[1,2,4]triazolo[4,3-a]pyrazine] | 95 nM | 81% | 103 nM
Cn1c(-c2cc(N3CCC(NS(C)(=O)=O)C3)ncc2Cl)nc2ccccc21 (stereo not shown) [Example A-153, N-{1-[5-chloro-4-(1-methyl-1H-benzimidazol-2-yl)pyridin-2-yl]pyrrolidin-3-yl}methanesulfonamide] | 15 nM | 93% | 23 nM
CN(C)CC(=O)N1CCN(c2cc(-c3nc4ccccc4n3C)c(Cl)cn2)CC1 [Example A-192, 2-{4-[5-chloro-4-(1-methyl-1H-benzimidazol-2-yl)pyridin-2-yl]piperazin-1-yl}-N,N-dimethyl-2-oxoethanamine] | 2.4 nM | 87% | 15 nM
Cc1cnc(N2CCC(NS(C)(=O)=O)CC2)cc1-c1nc2ccccc2n1C [Example E-1, N-{1-[5-methyl-4-(1-methyl-1H-benzimidazol-2-yl)pyridin-2-yl]piperidin-4-yl}methanesulfonamide] | 19.8 nM | 98% | 19 nM
Cn1c(-c2cc(N3C[C@H]4C[C@@H]3CN4S(C)(=O)=O)ncc2Cl)nc2ccccc21 [Example A-146, 2-{5-chloro-2-[(1R,4R)-5-(methylsulfonyl)-2,5-diazabicyclo[2.2.1]hept-2-yl]pyridin-4-yl}-1-methyl-1H-benzimidazole] | 92 nM | 75% | 202 nM
CN1CC2(CCN(c3cc(-c4nc5ccccc5n4C)c(Cl)cn3)CC2)OC1=O [Example A-197, 8-[5-chloro-4-(1-methyl-1H-benzimidazol-2-yl)pyridin-2-yl]-3-methyl-1-oxa-3,8-diazaspiro[4.5]decan-2-one] | 6.9 nM | 96% | 10 nM
Cn1c(-c2cc(N3CCC(C#N)CC3)ncc2Cl)nc2ccccc21 [Example A-75, 1-[5-chloro-4-(1-methyl-1H-benzimidazol-2-yl)pyridin-2-yl]piperidine-4-carbonitrile] | 11 nM | 92% | 23 nM
Cn1c(-c2cc(N3C[C@@H](O)[C@H](O)C3)ncc2Cl)nc2ccccc21 [Example A-127, (3R,4R)-1-[5-chloro-4-(1-methyl-1H-benzimidazol-2-yl)pyridin-2-yl]pyrrolidine-3,4-diol] | 128 nM | 57% | –
Cn1c(-c2cc(N3CCC(F)(F)CC3)ncc2Cl)nc2ccccc21 [Example A-210, 2-[5-chloro-2-(4,4-difluoropiperidin-1-yl)pyridin-4-yl]-1-methyl-1H-benzimidazole] | 22 nM | 87% | 57 nM
CN(C1CCN(c2cc(-c3nc4ccccc4n3C)c(Cl)cn2)CC1)S(C)(=O)=O [Example A-6, N-{1-[5-chloro-4-(1-methyl-1H-benzimidazol-2-yl)pyridin-2-yl]piperidin-4-yl}-N-methylmethanesulfonamide] | 3 nM | 96% | –
Cn1c(-c2cc(N3CCC(O)(c4cncnc4)C3)ncc2Cl)nc2ccccc21 (stereo not shown) [Example A-128, 1-[5-chloro-4-(1-methyl-1H-benzimidazol-2-yl)pyridin-2-yl]-3-pyrimidin-5-ylpyrrolidin-3-ol] | 80 nM | 54% | –
CCS(=O)(=O)N1CCN(c2cc(-c3nc4ccccc4n3C)c(F)cn2)CC1 [Example D-5, 2-{2-[4-(ethylsulfonyl)piperazin-1-yl]-5-fluoropyridin-4-yl}-1-methyl-1H-benzimidazole] | 17 nM | 97% | 18 nM
CC1C(=O)NCCN1c1cc(-c2nc3ccccc3n2C)c(Cl)cn1 (stereo not shown) [Example A-171, 4-[5-chloro-4-(1-methyl-1H-benzimidazol-2-yl)pyridin-2-yl]-3-methylpiperazin-2-one] | 28 nM | 97% | 31 nM
CC(=O)N1CCN(c2cc(-c3nc4ccccc4n3C)c(Cl)cn2)C[C@H]1C [Example A-159, 2-{2-[(3R)-4-acetyl-3-methylpiperazin-1-yl]-5-chloropyridin-4-yl}-1-methyl-1H-benzimidazole] | 4 nM | 100% | 10 nM
Cc1cnc(N2CCC(CS(C)(=O)=O)CC2)cc1-c1nc2ccccc2n1C [Example E-2, 1-methyl-2-(5-methyl-2-{4-[(methylsulfonyl)methyl]piperidin-1-yl}pyridin-4-yl)-1H-benzimidazole] | 20.9 nM | 99% | 18 nM
Cn1c(-c2cc(N3CCC(C(=O)N4CCCC4)CC3)ncc2Cl)nc2ccccc21 [Example A-100, 2-{5-chloro-2-[4-(pyrrolidin-1-ylcarbonyl)piperidin-1-yl]pyridin-4-yl}-1-methyl-1H-benzimidazole] | 21 nM | 83% | 55 nM
CC(=O)N1CCN(c2cc(-c3nc4ccccc4[nH]3)c(Cl)cn2)CC1 [Example A-215, 2-[2-(4-acetylpiperazin-1-yl)-5-chloropyridin-4-yl]-1H-benzimidazole] | 63 nM | 79% | 189 nM
CNC(=O)c1[nH]nc2c1CN(c1cc(-c3nc4ccccc4n3C)c(Cl)cn1)CC2 [Example A-114, 5-[5-chloro-4-(1-methyl-1H-benzimidazol-2-yl)pyridin-2-yl]-N-methyl-4,5,6,7-tetrahydro-1H-pyrazolo[4,3-c]pyridine-3-carboxamide] | 47 nM | 71% | 140 nM
Cn1c(-c2cc(N3CCNCC3)ncc2Cl)nc2ccccc21 [Example A-23, 2-(5-chloro-2-piperazin-1-ylpyridin-4-yl)-1-methyl-1H-benzimidazole] | 31 nM | 88% | 56 nM
Cn1c(-c2cc(N3CC(c4ccn[nH]4)C3)ncc2Cl)nc2ccccc21 [Example A-120, 2-{5-chloro-2-[3-(1H-pyrazol-5-yl)azetidin-1-yl]pyridin-4-yl}-1-methyl-1H-benzimidazole] | 114 nM | 62% | –
CC(=O)N1CCN(c2cc(-c3nc4ccccc4n3C)c(Cl)cn2)[C@H](C)C1 [Example A-168, 2-{2-[(2R)-4-acetyl-2-methylpiperazin-1-yl]-5-chloropyridin-4-yl}-1-methyl-1H-benzimidazole] | 7 nM | 97% | 8 nM
Cc1nnc(C2CCN(c3cc(-c4nc5ccccc5n4C)c(Cl)cn3)CC2)o1 [Example A-97, 2-{5-chloro-2-[4-(5-methyl-1,3,4-oxadiazol-2-yl)piperidin-1-yl]pyridin-4-yl}-1-methyl-1H-benzimidazole] | 25 nM | 85% | 32 nM
